Reference: patent US9006191B2, “Silencing of polo-like kinase expression using interfering RNA” (Protiva Biotherapeutics, Inc., priority 2007, dated 2015)
Entries after “also recorded” stand apart in the source; their conditions may differ.

What was measured:
Neuro2A cells = assay: Neuro2A cell viability assay (CellTiter-Blue); assay type: cell-based; details: mouse Neuro2A cells, SNALP-formulated siRNA, viability at 72 h relative to PBS
Experimental: Various PLK-1 siRNAs were formulated as SNALP (“2:40” SNALP formulation: 2% PEG-cDMA; 40% DLinDMA; 10% DSPC; and 48% cholesterol) and evaluated for their inhibitory effects on cell growth in vitro. HT29 (human colon adenocarcinoma) or Neuro2A (mouse neuroblastoma) cells were treated with various PLK-1 SNALP at a range of siRNA concentrations and their effect on cell viability was evaluated. Viability of cell cultures is expressed as % viability relative to PBS treated controls.
Additional PLK-1 siRNA molecules were formulated as SNALP (“2:40” SNALP formulation: 2% PEG-cDMA; 40% DLinDMA; 10% DSPC; and 48% cholesterol) and evaluated for their inhibitory effects on cell growth in vitro. HT29 or Neuro2A cells were plated in triplicate at 5000 cells/well and 2500 cells/well, respectively. PLK-1 SNALP dosages were as follows: 25 nM; 5 nM; and 1 nM. Cell viability analysis was performed at 72 hours following transfection. SNALP containing a non-targeting (GFP) siRNA were used as a negative control.
Additional PLK-1 siRNA molecules were formulated as SNALP (“2:40” SNALP formulation: 2% PEG-cDMA; 40% DLinDMA; 10% DSPC; and 48% cholesterol) and evaluated for their inhibitory effects on cell growth in vitro. HT29 or Neuro2A cells were plated in triplicate at 5000 cells/well and 2500 cells/well, respectively. PLK-1 SNALP dosages were as follows: 30 nM; 10 nM; and 3.3 nM. Cell viability analysis was performed at 72 hours following transfection. SNALP containing a non-targeting (GFP) siRNA were used as a negative control.

LS174T cells = assay: Apoptosis/Caspase 3/7 assay in LS174T cells; assay type: cell-based, human; details: SNALP-formulated siRNA, 24-72 h
Experimental: This assay is based on the specific enzymatic cleavage of the Caspase 3/7 substrate (Z-DEVD)-2-Rhodamine 110 to a fluorogenic product and is used to quantify the level of apoptosis in cultured cells.
SNALP containing PLK1424 or PLK773 siRNA (“2:40” SNALP formulation: 2% PEG-cDMA; 40% DLinDMA; 10% DSPC; and 48% cholesterol) were further tested for their effects on inducing the apoptosis of LS174T cells. Cells were plated in triplicate at ˜10,000 cells/well. SNALP dosages were as follows: 30 nM; 10 nM; and 3.3 nM. Caspase 3/7 assays were performed at 24, 48, and 72 hours following transfection. SNALP containing a non-targeting (GFP) siRNA were used as a negative control.

Hep3B liver tumors = assay: Intrahepatic Hep3B tumor model (survival, body weight, tumor burden); assay type: in vivo
Experimental: SNALP containing PLK-1 siRNA (“1:57” SNALP formulation: 1.4% PEG-cDMA; 57.1% DLinDMA; 7.1% DPPC; and 34.3% cholesterol) were tested for their effects on the survival of […] mice bearing Hep3B liver tumors.
Intrahepatic tumor models. Liver tumors were established in mice by direct intrahepatic injection of Hep3B or Neuro2a tumor cells (45). Female scid/beige mice (Charles River Laboratories) and male A/J mice (Jackson Laboratories) were used as hosts for the Hep3B and Neuro2a tumors, respectively. Animals received Anafen by SC injection immediately prior to surgery. Individual mice were anaesthetized by isoflourane gas inhalation and eye lube applied to prevent excessive eye drying. While maintained under gas anaesthesia, a single 1.5 cm incision across the midline was made below the sternum and the left lateral hepatic lobe exteriorized. 1×10^6 Hep3B cells or 1×10^5 Neuro2a cells suspended in 25 μL PBS were injected slowly into the lobe at a shallow angle using a Hamilton syringe and 30G needle. A swab was then applied to the puncture wound to stop any bleeding prior to suturing. Mice were allowed to recover from anaesthesia in a sterile cage and monitored closely for 2-4 h before being returned to conventional housing.
Eight to 11 days after tumor implantation, mice were randomized into treatment groups. siRNA SNALP formulations or PBS vehicle control were administered by standard intravenous injection via the lateral tail vein, calculated on a mg siRNA/kg basis according to individual animal weights (10 mL/kg injection volume). Body weights were then monitored throughout the duration of the study as an indicator of developing tumor burden and treatment tolerability. For efficacy studies, defined humane endpoints were determined as a surrogate for survival. Assessments were made by qualified veterinary technicians based on a combination of clinical signs, weight loss, and abdominal distension to define the day of euthanization due to tumor burden.
Measurement of human PLK-1 and GAPDH mRNA in tumor tissues. Tumors were harvested directly into RNALater and stored at 4° C. until processing. 100 mg tumor tissue was homogenized in Tissue and Lysis Solution (EpiCentre Biotechnologies) containing […] proteinase K (EpiCentre) in a Fastprep tissue homogenizer followed by incubation in a 65° C. waterbath for 15 min and centrifuged to clarify lysates. mRNA analysis in FIG. 33B was performed on purified RNA isolated according the 5′-RACE-PCR protocol. Human PLK-1 and GAPDH mRNA were measured in tumor lystes by the QuantiGene bDNA assay (Panomics) as per the manufacturer's instructions (Quantigene 1.0 Manual). […] Data were expressed as mean PLK-1:GAPDH ratio+/−SD of individual animals. Tumor burden was assessed by homogenizing the complete liver from tumor bearing mice and measuring the total hGAPDH signal (RLU's) within the liver. Values were expressed as hGAPDH RLU/mg total liver.

human PLK-1 mRNA = assay: 5′ RACE-PCR in HT29 cells; assay type: cell-based; details: 10 nM, 24 h
Experimental: (A) HT29 cells were treated with 10 nM SNALP-formulated PLK1424, Luc siRNA or PBS. RNA was isolated 24 hours after transfection and assayed for the specific PLK-1 mRNA cleavage product by 5′-RACE-PCR. (B) Neuro2a cells were treated with SNALP-formulated KSP2263, PLK773 siRNA or PBS. RNA was isolated 24 hours after transfection and assayed for the specific mouse KSP mRNA cleavage product by 5′-RACE-PCR.
The detection of specific RNA cleavage products generated by RISC-mediated hydrolysis of target mRNA is the definitive marker confirming RNAi as the mechanism of gene silencing (39, 40). Activated RISC cleaves target mRNA precisely between the nucleotides complementary to positions 10 and 11 of the siRNA AS strand generating an mRNA cleavage product that is unique to the siRNA sequence. This can be detected in cells using an appropriately designed 5′-rapid amplification of cDNA ends-PCR method (RACE-PCR). We developed RACE-PCR assays to detect the PLK1424-specific cleavage product of human PLK-1 mRNA and the KSP2263-specific cleavage product of mouse KSP mRNA.
5′ RNA Ligase Mediated Rapid Amplification of cDNA ends (5′ RLM RACE).

[1] = Hep3B-nu/nu mouse model, 2 mg/kg twice weekly d11-d28

Row | Substance | cell viability / inhibition of cell growth (Neuro2A cells) | induction of apoptosis (Caspase 3/7 activity) (LS174T cells) | median survival, Study (A) (Hep3B liver tumors; [1]) | median survival, study (B) (Hep3B liver tumors; [1]) | mice with visible tumors at autopsy (Hep3B liver tumors; day 22, 1 day after fifth 2 mg/kg dose) | survival advantage (Kaplan-Meier, Log-rank) (Hep3B liver tumors; scid/beige mice, 6 × 2 mg/kg IV twice weekly, d 10 to d 28) | PLK-1 mRNA cleavage product by 5′ RACE-PCR (human PLK-1 mRNA)
1 | PLK1424: siRNA to human PLK-1, SEQ ID NO:1/2 (UU overhang form 211/212) (chain 1 AGAUCACCCUCCUUAAAUA; chain 2 UAUUUAAGGAGGGUGAUCU; further chemistry not given here) | inactivity in the mouse cell line | induced a significant amount of apoptosis in LS174T cells at all SNALP doses tested; also recorded: dose-dependent induction of apoptosis 48 h after siRNA transfection | 45 days | 42 days |  |  | 
2 | PLK773: siRNA to human PLK-1, SEQ ID NO:3/4 (UU overhang form 218/219) (chain 1 AGACCUACCUCCGGAUCAA; chain 2 UUGAUCCGGAGGUAGGUCU; RNA, backbone not given here) | most potent human/mouse cross-reactive siRNA molecules | induced a significant amount of apoptosis in LS174T cells at all SNALP doses tested |  |  |  |  | 
3 | PLK1424-2/A: 2′OMe-modified PLK1424 duplex, SEQ ID NO:214/215 (same SEQ IDs as PLK1424 1/3 of Table 11) (chain 1 AGANCACCCNCCUNAAANAUU; chain 2 UAUUUAANGAGGGUGANCUUU; siRNA; 2'-O-methyl modifications at selected positions, key for n not given here) |  |  |  |  | 2 of 6 | significant survival advantage over control treatment | generated the predicted 476 bp 5′ RACE-PCR product
